Measured values taken from patent publication US20080234254A1, “Inhibitors of Histone Deacetylase” (UNIVERSITY OF LEEDS, priority 2004, published 2008).
Where two headings read alike, the source gives them in different places. Blank lines part the entries; values can stand above or below the compound they belong to.

Key:
cancer cell lines = assay: Screening of benzamide derivatives against cancer cell lines (summary); assay type: cell-based; conditions: summary of Tables 1 and 2
Text: (§1) Screening of Benzamide Derivatives Against Cancer Cell Lines Tables 1 and 2 tabulate by way of example the results obtained for compounds (4) and (6).

HCC-2998 = assay: Screening against cancer cell lines: HCC-2998 (Colon); assay type: cell-based
Text: as §1
(§2) 6 colon cancer cell lines were screened against both compound (4) and MS275.

NCI/ADR-RES = assay: Screening against cancer cell lines: NCI/ADR-RES (Breast); assay type: cell-based
Text: as §1
(§3) 7 breast cancer cell lines were screened against both compound (4) and MS275.

MDA-MB-435 = assay: Screening against cancer cell lines: MDA-MB-435 (Breast); assay type: cell-based
Text: as §1, §3

IGROV1 = assay: Screening against cancer cell lines: IGROV1 (Ovarian); assay type: cell-based; conditions: for GI50: IGROV-1
Text: as §1
(§4) 6 ovarian cancer cell lines were screened against both compound (4) and MS275.

NCI-H23 = assay: Screening against cancer cell lines: NCI-H23 (Non-Small Cell Lung); assay type: cell-based
Text: as §1
(§5) 8 non-small cell lung cancer cell lines were screened against both compound (4) and MS275.

LOX IMVI = assay: Screening against cancer cell lines: LOX IMVI (Melanoma); assay type: cell-based
Text: as §1
(§6) 7 melanoma cancer cell lines were screened against both compound (4) and MS275.

NCI-H522 = assay: Screening against cancer cell lines: NCI-H522 (Non-Small Cell Lung); assay type: cell-based
Text: as §1, §5

SR = assay: Screening against cancer cell lines: SR (Leukaemia); assay type: cell-based
Text: as §1

786-0 = assay: Comparison test versus MS275: 786-0 (renal cancer); assay type: cell-based; conditions: Homo sapiens, read-out: potency (quantity not named; values match GI50 of Table 1)
Text: (§7) 7 renal cancer cell lines were screened against both compound (4) and MS275.

UACC-257 = assay: Screening against cancer cell lines: UACC-257 (Melanoma); assay type: cell-based; conditions: Homo sapiens; UACC-257, melanoma; comparison versus MS275; read-out: potency (quantity not named; values match GI50 of Table 1)
Text: as §1, §6

RXF 393 = assay: Screening against cancer cell lines: RXF 393 (Renal); assay type: cell-based; conditions: Homo sapiens; RXF 393, renal cancer; comparison versus MS275; read-out: potency (quantity not named; values match GI50 of Table 1)
Text: as §1, §7

MDA-MB-231/ATCC = assay: Screening against cancer cell lines: MDA-MB-231/ATCC (Breast); assay type: cell-based; conditions: Homo sapiens, breast cancer, comparison versus MS275, read-out: potency (quantity not named; values match GI50 of Table 1)
Text: as §1, §3

OVCAR-4 = assay: Comparison test versus MS275: OVCAR-4 (ovarian cancer); assay type: cell-based; conditions: Homo sapiens, read-out: potency (quantity not named; values match GI50 of Table 1)
Text: as §4

SN12C = assay: Screening against cancer cell lines: SN12C (Renal); assay type: cell-based; conditions: Homo sapiens, renal cancer, comparison versus MS275, read-out: potency (quantity not named; values match GI50 of Table 1)
Text: as §1, §7

SK-OV-3 = assay: Comparison test versus MS275: SK-OV-3 (ovarian cancer); assay type: cell-based; conditions: Homo sapiens, read-out: potency (quantity not named; values match GI50 of Table 1)
Text: as §4

ACHN = assay: Screening against cancer cell lines: ACHN (Renal); assay type: cell-based; conditions: Homo sapiens, renal cancer, comparison versus MS275, read-out: potency (quantity not named; values match GI50 of Table 1)
Text: as §1, §7

SK-MEL-28 = assay: Screening against cancer cell lines: SK-MEL-28 (Melanoma); assay type: cell-based; conditions: Homo sapiens; SK-MEL-28, melanoma; comparison versus MS275; read-out: potency (quantity not named; values match GI50 of Table 1)
Text: as §1, §6

KM-12 = assay: Comparison test versus MS275: KM-12 (colon cancer); assay type: cell-based; conditions: Homo sapiens, KM12, read-out: potency (quantity not named; values match GI50 of Table 1)
Text: as §2

HCT-15 = assay: Screening against cancer cell lines: HCT-15 (Colon); assay type: cell-based; conditions: Homo sapiens; HCT-15, colon cancer; comparison versus MS275; read-out: potency (quantity not named; values match GI50 of Table 1)
Text: as §1, §2

rat fibroblasts = conditions: cited from earlier work
tumours = conditions: mice; cited from earlier work

Compound: C=C(CN(C)Cc1ccccc1)c1ccc(C(=O)Nc2ccccc2N)cc1 [(2), N-(2-amino-phenyl)-4-(1-{[benzyl(methyl)amino]methyl}vinyl)benzamide]
melting point: 110 to 111 °C

Compound: C=C(CN1CCc2c([nH]c3ccccc23)C1)c1ccc(C(=O)Nc2ccccc2N)cc1 [(6), N-(2-aminophenyl)-4-[1-(1,3,4,9-tetrahydro-2H-β-carbolin-2-ylmethyl)vinyl]benzamide]
activity against cancer cell lines (in words) (cancer cell lines): nanomolar activity | TGI (HCC-2998; HCC-2998, Colon, Table 2): 1900 nM | GI50 (HCC-2998; Homo sapiens, HCC 2998): 731 nM | CC50 (HCC-2998; Homo sapiens, HCC 2998, read-out: LC50): 5000 nM | TGI (NCI/ADR-RES; Breast, Table 2): 3900 nM | GI50 (NCI/ADR-RES; Homo sapiens): 973 nM | CC50 (NCI/ADR-RES; Homo sapiens, read-out: LC50): 18300 nM | GI50 (MDA-MB-435; Homo sapiens, MDA-MB-435): 948 nM | CC50 (MDA-MB-435; Homo sapiens, MDA-MB-435, read-out: LC50): 5600 nM | TGI (MDA-MB-435; MDA-MB-435, Breast, Table 2): 2200 nM | GI50 (IGROV1; Homo sapiens): 32 nM | CC50 (IGROV1; Homo sapiens, IGROV-1, read-out: LC50): > 50000 nM | TGI (IGROV1; IGROV1, Ovarian, Table 2): 8500 nM | GI50 (NCI-H23; Homo sapiens, NCI-H23): 1040 nM | CC50 (NCI-H23; Homo sapiens, NCI-H23, read-out: LC50): 13400 nM | TGI (NCI-H23; NCI-H23, Non-Small Cell Lung, Table 2): 3200 nM | GI50 (LOX IMVI; Homo sapiens): 763 nM | CC50 (LOX IMVI; Homo sapiens, read-out: LC50): > 50000 nM | TGI (LOX IMVI; Melanoma, Table 2): 2400 nM | GI50 (NCI-H522; Homo sapiens, NCI-H522): 150 nM | CC50 (NCI-H522; Homo sapiens, NCI-H522, read-out: LC50): > 50000 nM | TGI (NCI-H522; NCI-H522, Non-Small Cell Lung, Table 2): 3000 nM | GI50 (SR; Homo sapiens): 622 nM | CC50 (SR; Homo sapiens, read-out: LC50): > 50000 nM | TGI (SR; Leukaemia, Table 2): — (‘—’ indicates a concentration exceeding 50 μM.)

Compound: C=C(CNCc1ccccc1)c1ccc(C(=O)Nc2ccccc2N)cc1 [(7), N-(2-aminophenyl)-4-{1-[(benzylamino)methyl]vinyl}benzamide]
melting point: 89 to 91 °C

Compound: C=C(CN1CCN(c2ccccc2OC)CC1)c1ccc(C(=O)Nc2ccccc2N)cc1 [(9), N-(2-aminophenyl)-4-{1-[4-(2-methoxy-phenyl)-piperazin-1-ylmethyl]vinyl}-benzamide]
melting point: 115 to 116 °C

Compound: CC(C)=C(CN1CCc2ccccc2C1)c1ccc(C(=O)Nc2ccccc2N)cc1 [(14), N-(2-Amino-phenyl)-4-[1-(3,4-dihydro-1H-isoquinolin-2-ylmethyl)-2-methyl-propenyl]-benzamide]
melting point: 120 °C

Compound: Nc1ccccc1NC(=O)c1ccc(CNC(=O)OCc2cccnc2)cc1 [MS275, reference compound]
GI50 (786-0): 3160 nM | GI50 (UACC-257): 1540 nM | GI50 (HCC-2998; Homo sapiens, HCC-2998, colon cancer, comparison versus MS275, read-out: potency (quantity not named; values match GI50 of Table 1)): 1260 nM | GI50 (RXF 393): 2000 nM | GI50 (NCI/ADR-RES; Homo sapiens, breast cancer, comparison versus MS275, read-out: potency (quantity not named; values match GI50 of Table 1)): 1260 nM | GI50 (MDA-MB-231/ATCC): 2000 nM | GI50 (MDA-MB-435; Homo sapiens, MDA-MB-435, breast cancer, comparison versus MS275, read-out: potency (quantity not named; values match GI50 of Table 1)): 10000 nM | GI50 (IGROV1; Homo sapiens, IGROV1, ovarian cancer, comparison versus MS275, read-out: potency (quantity not named; values match GI50 of Table 1)): 2510 nM | GI50 (OVCAR-4): 20000 nM | GI50 (SN12C): 5010 nM | GI50 (NCI-H23; Homo sapiens, NCI-H23, non-small cell lung cancer, comparison versus MS275, read-out: potency (quantity not named; values match GI50 of Table 1)): 1030 nM | GI50 (LOX IMVI; Homo sapiens, melanoma, comparison versus MS275, read-out: potency (quantity not named; values match GI50 of Table 1)): 790 nM | GI50 (SK-OV-3): 5010 nM | GI50 (NCI-H522; Homo sapiens, NCI-H522, non-small cell lung cancer, comparison versus MS275, read-out: potency (quantity not named; values match GI50 of Table 1)): 1000 nM | GI50 (ACHN): 2000 nM | GI50 (SK-MEL-28): 2000 nM | GI50 (KM-12): 25000 nM | GI50 (HCT-15): 3980 nM

Compound: CC(/C=C/C(=O)NO)=C\[C@@H](C)C(=O)c1ccc(N(C)C)cc1 [Trichostatin A]
effect on the cell cycle (rat fibroblasts): arrest of rat fibroblasts at the G1 and G2 phases of the cell cycle | formation of tumours (tumours): prevent the formation of tumours in mice

The remaining lines, values ahead:

melting point: 163 to 164 °C
Compound: C=C(CN1CCOCC1)c1ccc(C(=O)Nc2ccccc2N)cc1 [(1), N-(2-Amino-phenyl)-4-(1-morpholin-4-ylmethyl-vinyl)-benzamide]

melting point: 129 °C
Compound: C=C(CN1CCOCC1)c1ccc(CC(=O)Nc2ccccc2N)cc1 [(11), N-(2-Amino-phenyl)-2-[4-(1-morpholin-4-ylmethyl-vinyl)-phenyl]-acetamide]

melting point: 79 to 81 °C
Compound: C=C(CN1CCOCC1)c1ccc(CCCC(=O)Nc2ccccc2N)cc1 [(13), N-(2-Amino-phenyl)-4-[4-(1-morpholin-4-ylmethyl-vinyl)-phenyl]-butanamide]
